We go through 28 molecules from US20250145633A1, “SUBSTITUTED FURANOPYRIMIDINE COMPOUNDS AS PDE1 INHIBITORS” (Dart NeuroScience, LLC, priority 2017, published 2025).

The first assay concerns the target human PDE1B enzyme (Homo sapiens (Human), UniProt Q01064). Briefly: IMAP TR-FRET PDE1B enzymatic assay. It is filed as biochemical. The conditions noted are these: negative log of half-maximal molar inhibitory concentration; 200 nM FAM-cAMP; values given as bins. Put shortly:
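Full-length GST-tagged human PDE1B (250 pg/well) in IMAP BSA buffer with 10 U/ml calmodulin and 2.5 mM CaCl2; compound pre-incubated 5 min at room temperature, then 200 nM (final) FAM-cAMP for 30 min. IMAP binding reagent/Tb added, 1 h; TR-FRET 520/490 ratio read. IC50 from sigmoidal dose-response fit.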
Regarding `COc1cnc(C2=CCN(C(=O)c3c(C)oc4ncnc(NC5(C)CC5)c34)CC2)cn1` [Example 784, 5-[4-(5-Methoxypyrazin-2-yl)-1,2,3,6-tetrahydropyridine-1-carbonyl]-6-methyl-N-(1-methylcyclopropyl)furo[2,3-d]pyrimidin-4-amine], the “PDE1b (pIC50)” value was >8.

`COc1ccc(C2=CCN(C(=O)c3c(C)oc4ncnc(NC5(C)CC5)c34)CC2)nc1` [Example 785, 5-[4-(5-Methoxypyridin-2-yl)-1,2,3,6-tetrahydropyridine-1-carbonyl]-6-methyl-N-(1-methylcyclopropyl)furo[2,3-d]pyrimidin-4-amine]: the “PDE1b (pIC50)” value is listed as >8.

`Cc1oc2ncnc(NC3(C)CC3)c2c1C(=O)N1CCc2c(nc(Cl)nc2NC(C)C)C1` [Example 789, 5-{2-Chloro-4-[(propan-2-yl)amino]-5H,6H,7H,8H-pyrido[3,4-d]pyrimidine-7-carbonyl}-6-methyl-N-(1-methylcyclopropyl)furo[2,3-d]pyrimidin-4-amine]: the “PDE1b (pIC50)” value is given as >8.

On to `Cc1cc(F)nc(C2CCN(C(=O)c3c(C)oc4ncnc(NC5(C)CC5)c34)C2)c1` (stereo not shown) [Example 798, 5-[3-(6-Fluoro-4-methylpyridin-2-yl)pyrrolidine-1-carbonyl]-6-methyl-N-(1-methylcyclopropyl)furo[2,3-d]pyrimidin-4-amine], for which the “PDE1b (pIC50)” value is >8.

For the molecule `Cc1nc(C2CCN(C(=O)c3c(C)oc4ncnc(NC5(C)CC5)c34)C2)ccc1F` (stereo not shown) [Example 799, 5-[3-(5-Fluoro-6-methylpyridin-2-yl)pyrrolidine-1-carbonyl]-6-methyl-N-(1-methylcyclopropyl)furo[2,3-d]pyrimidin-4-amine], the “PDE1b (pIC50)” value was >8.

For `Cc1nc(C2CCN(C(=O)c3c(C)oc4ncnc(NC5(C)CC5)c34)C2)ncc1F` (stereo not shown) [Example 800, 5-[3-(5-Fluoro-4-methylpyrimidin-2-yl)pyrrolidine-1-carbonyl]-6-methyl-N-(1-methylcyclopropyl)furo[2,3-d]pyrimidin-4-amine], the “PDE1b (pIC50)” value was >8.

As for `Cc1oc2ncnc(NC3(C)CC3)c2c1C(=O)N1CCC(c2cccc(C(F)(F)F)n2)C1` (stereo not shown) [Example 801, 6-Methyl-N-(1-methylcyclopropyl)-5-f{3-[6-(trifluoromethyl)pyridin-2-yl]pyrrolidine-1-carbonyl}furo[2,3-d]pyrimidin-4-amine], the “PDE1b (pIC50)” value is reported as >8.

For `Cc1oc2ncnc(NC3(C)CC3)c2c1C(=O)N1CCC(c2cc(C(F)(F)F)ccn2)C1` (stereo not shown) [Example 802, 6-Methyl-N-(1-methylcyclopropyl)-5-f{3-[4-(trifluoromethyl)pyridin-2-yl]pyrrolidine-1-carbonyl}furo[2,3-d]pyrimidin-4-amine], the “PDE1b (pIC50)” value is reported as >8.

On to `Cc1oc2ncnc(NC3(C)CC3)c2c1C(=O)N1CCc2c(ncnc2OCC(C)C)C1` [Example 807, 6-Methyl-N-(1-methylcyclopropyl)-5-[4-(2-methylpropoxy)-5H,6H,7H,8H-pyrido[3,4-d]pyrimidine-7-carbonyl]furo[2,3-d]pyrimidin-4-amine], for which the “PDE1b (pIC50)” value was >8.

Regarding `Cc1oc2ncnc(NC3(C)CC3)c2c1C(=O)N1CCc2c(ncnc2OCC2CC2)C1` [Example 808, 5-[4-(Cyclopropylmethoxy)-5H,6H,7H,8H-pyrido[3,4-d]pyrimidine-7-carbonyl]-6-methyl-N-(1-methylcyclopropyl)furo[2,3-d]pyrimidin-4-amine], the “PDE1b (pIC50)” value is >8.

As to `Cc1oc2ncnc(NC3(C)CC3)c2c1C(=O)N1CCc2c(ncnc2OC2CCC2)C1` [Example 810, 5-{4-Cyclobutoxy-5H,6H,7H,8H-pyrido[3,4-d]pyrimidine-7-carbonyl}-6-methyl-N-(1-methylcyclopropyl)furo[2,3-d]pyrimidin-4-amine], the “PDE1b (pIC50)” value is listed as >8.

The same assay, now with this note: negative log of half-maximal molar inhibitory concentration; 200 nM FAM-cAMP; values given as bins; read-out: PDE1b (pIC50) (converted).
In the case of `Cc1oc2ncnc(NC3(C)CC3)c2c1C(=O)N1CCc2c(ncnc2N2CC[C@H](F)C2)C1` [Example 786, 5-{4-[(3S)-3-Fluoropyrrolidin-1-yl]-5H,6H,7H,8H-pyrido[3,4-d]pyrimidine-7-carbonyl}-6-methyl-N-(1-methylcyclopropyl)furo[2,3-d]pyrimidin-4-amine], the IC50 was 10 to 100 nM.

Take `Cc1oc2ncnc(NC3(C)CC3)c2c1C(=O)N1CCc2c(ncnc2N2CCOCC2)C1` [Example 787, 6-Methyl-N-(1-methylcyclopropyl)-5-[4-(morpholin-4-yl)-5H,6H,7H,8H-pyrido[3,4-d]pyrimidine-7-carbonyl]furo[2,3-d]pyrimidin-4-amine]: the IC50 was 10 to 100 nM.

As to `Cc1oc2ncnc(NC3(C)CC3)c2c1C(=O)N1CCc2c(ncnc2N2CC(F)C2)C1` [Example 788, 5-[4-(3-Fluoroazetidin-1-yl)-5H,6H,7H,8H-pyrido[3,4-d]pyrimidine-7-carbonyl]-6-methyl-N-(1-methylcyclopropyl)furo[2,3-d]pyrimidin-4-amine], the IC50 is 10 to 100 nM.

Take `Cc1oc2ncnc(NC3(C)CC3)c2c1C(=O)N1CCc2c(ncnc2N(C)C2CC2)C1` [Example 790, 5-{4-[Cyclopropyl(methyl)amino]-5H,6H,7H,8H-pyrido[3,4-d]pyrimidine-7-carbonyl}-6-methyl-N-(1-methylcyclopropyl)furo[2,3-d]pyrimidin-4-amine]: the IC50 is 10 to 100 nM.

Take `Cc1oc2ncnc(NC3(C)CC3)c2c1C(=O)N1CCc2c(ncnc2N(C)C)C1` [Example 791, 5-[4-(Dimethylamino)-5H,6H,7H,8H-pyrido[3,4-d]pyrimidine-7-carbonyl]-6-methyl-N-(1-methylcyclopropyl)furo[2,3-d]pyrimidin-4-amine]: the IC50 was 10 to 100 nM.

Take `CNc1ncnc2c1CCN(C(=O)c1c(C)oc3ncnc(NC4(C)CC4)c13)C2` [Example 792, 6-Methyl-5-[4-(methylamino)-5H,6H,7H,8H-pyrido[3,4-d]pyrimidine-7-carbonyl]-N-(1-methylcyclopropyl)furo[2,3-d]pyrimidin-4-amine]: the IC50 is 10 to 100 nM.

With `Cc1oc2ncnc(NC3(C)CC3)c2c1C(=O)N1CCc2c(ncnc2N(C)C2CCOCC2)C1` [Example 793, 6-Methyl-5-{4-[methyl(oxan-4-yl)amino]-5H,6H,7H,8H-pyrido[3,4-d]pyrimidine-7-carbonyl}-N-(1-methylcyclopropyl)furo[2,3-d]pyrimidin-4-amine], the IC50 is 10 to 100 nM.

Consider `Cc1oc2ncnc(NC3(C)CC3)c2c1C(=O)N1CCc2c(ncnc2NC2CCOCC2)C1` [Example 794, 6-Methyl-N-(1-methylcyclopropyl)-5-f{4-[(oxan-4-yl)amino]-5H,6H,7H,8H-pyrido[3,4-d]pyrimidine-7-carbonyl}furo[2,3-d]pyrimidin-4-amine], for which the IC50 was 10 to 100 nM.

For the molecule `COCC1(Nc2ncnc3c2CCN(C(=O)c2c(C)oc4ncnc(NC5(C)CC5)c24)C3)CC1` [Example 795, 5-(4-{[1-(Methoxymethyl)cyclopropyl]amino}-5H,6H,7H,8H-pyrido[3,4-d]pyrimidine-7-carbonyl)-6-methyl-N-(1-methylcyclopropyl)furo[2,3-d]pyrimidin-4-amine], the IC50 was 10 to 100 nM.

`Cc1oc2ncnc(NC3(C)CC3)c2c1C(=O)N1CCc2c(ncnc2NC2(C)CC2)C1` [Example 796, 6-Methyl-N-(1-methylcyclopropyl)-5-{4-[(1-methylcyclopropyl)amino]-5H,6H,7H,8H-pyrido[3,4-d]pyrimidine-7-carbonyl}furo[2,3-d]pyrimidin-4-amine]: the IC50 is 10 to 100 nM.

In the case of `Cc1oc2ncnc(NC3(C)CC3)c2c1C(=O)N1CCC(c2ccc(OCCF)cc2)C1` (stereo not shown) [Example 797, 5-{3-[4-(2-Fluoroethoxy)phenyl]pyrrolidine-1-carbonyl}-6-methyl-N-(1-methylcyclopropyl)furo[2,3-d]pyrimidin-4-amine], the IC50 is 10 to 100 nM.

With `Cc1oc2ncnc(NC3(C)CC3)c2c1C(=O)N1CCc2c(ncnc2C2CCOCC2)C1` [Example 803, 6-Methyl-N-(1-methylcyclopropyl)-5-[4-(oxan-4-yl)-5H,6H,7H,8H-pyrido[3,4-d]pyrimidine-7-carbonyl]furo[2,3-d]pyrimidin-4-amine], the IC50 was 10 to 100 nM.

Regarding `C=C(C)c1ncnc2c1CCN(C(=O)c1c(C)oc3ncnc(NC4(C)CC4)c13)C2` [Example 804, 6-Methyl-N-(1-methylcyclopropyl)-5-[4-(prop-1-en-2-yl)-5H,6H,7H,8H-pyrido[3,4-d]pyrimidine-7-carbonyl]furo[2,3-d]pyrimidin-4-amine], the IC50 was 10 to 100 nM.

As for `Cc1oc2ncnc(NC3(C)CC3)c2c1C(=O)N1CCc2c(ncnc2C2CC2)C1` [Example 805, 5-{4-Cyclopropyl-5H,6H,7H,8H-pyrido[3,4-d]pyrimidine-7-carbonyl}-6-methyl-N-(1-methylcyclopropyl)furo[2,3-d]pyrimidin-4-amine], the IC50 was 10 to 100 nM.

On to `CCCOc1ncnc2c1CCN(C(=O)c1c(C)oc3ncnc(NC4(C)CC4)c13)C2` [Example 806, 6-Methyl-N-(1-methylcyclopropyl)-5-f{4-propoxy-5H,6H,7H,8H-pyrido[3,4-d]pyrimidine-7-carbonyl}furo[2,3-d]pyrimidin-4-amine], for which the IC50 is 10 to 100 nM.

With `COCCOc1ncnc2c1CCN(C(=O)c1c(C)oc3ncnc(NC4(C)CC4)c13)C2` [Example 809, 5-[4-(2-Methoxyethoxy)-5H,6H,7H,8H-pyrido[3,4-d]pyrimidine-7-carbonyl]-6-methyl-N-(1-methylcyclopropyl)furo[2,3-d]pyrimidin-4-amine], the IC50 is 10 to 100 nM.

With `Cc1oc2ncnc(NC3(C)CC3)c2c1C(=O)N1CCc2c(ncnc2OC2CC2)C1` [Example 811, 5-{4-Cyclopropoxy-5H,6H,7H,8H-pyrido[3,4-d]pyrimidine-7-carbonyl}-6-methyl-N-(1-methylcyclopropyl)furo[2,3-d]pyrimidin-4-amine], the IC50 was 10 to 100 nM.
